Results published in patent US20260070887A1 (Shenzhen Zhongge Biological Technology Co., Ltd., priority 2022, published 2026).
Read-outs that look alike come from different tables or passages of the source.

Experiments:
HCT116 cells = experiment: HCT116 cell anti-proliferation assay; format: cell-based; conditions: 6 days, Cell Titer-Glo
Procedure: HCT116 (ATCC, CCL-247) cells were cultured in McCoy's 5a complete medium (Gibco, 12330-031) containing 10% fetal bovine serum (Gibco, 10099-141C), 100 U penicillin and 100 μg/mL streptomycin (Gibco, 15140-122). The Promega kit Cell Titer-Glo (Promega: G7572) was used in this method for test.
HCT116 cells were cultured in T75 cell flasks (Corning, 430641) and the cells were placed in a 37° C., 5% CO2 incubator. Cells were passaged when reaching a cell density of 70%-80%, approximately twice per week. To perform the experiment, the test compounds were dissolved in DMSO to prepare a 10 mM stock solution, and the test compounds were added to the 384-well cell test plate (Corning, 3765) at the predetermined concentration (19.5 nM-[…]) using ECHO. […] cells were digested and 150 cells (60 μL medium) were seeded per well in the test plate. The 384-well plate was then centrifuged at 500 rpm for 1 minute, and then placed in a 37° C., 5% CO2 incubator for 6 days of cultivation. Six days later, the cell culture plate was equilibrated for 10 minutes at room temperature, 25 μL of Cell Titer-Glo was added to each well, and the mixture was shaken and mixed well and let stand for 5 minutes. The luminescence values for samples in various wells were read using a microplate reader in Luminescence mode.
(§1) The percentage of inhibition of cell proliferation by the test compound at each concentration was calculated by comparing with the values of the control group (0.2% DMSO). The IC50 values of the compounds were obtained by concentration-inhibition rate nonlinear regression analysis of the test compounds using GraphPad Prism 9.

HT-29 cells = experiment: HT-29 cell proliferation (Cell Titer-Glo, 6 days); format: cell-based
Procedure: The inhibitory effect on the KIF18A target by the compounds of the present disclosure was evaluated by testing the inhibitory effect on proliferation of HT-29 cells by the compounds of the present disclosure.
HT-29 (ATCC, HTB-38) cells were cultured in McCoy's 5a complete medium (Gibco, 12330-031) containing 10% fetal bovine serum (Gibco, 10099-141C), 100 U penicillin and […] streptomycin (Gibco, 15140-122). The Promega kit Cell Titer-Glo (Promega: G7572) was used in this method for test. • 1. HT-29 cells were cultured in T75 cell flasks (Corning, 430641) and the medium was placed in a 37° C., 5% CO2 incubator. Cells were passaged when reaching a cell density of 70%-80%, approximately twice per week. • 2. To perform the experiment, the test compounds were dissolved in DMSO to prepare a 10 mM stock solution, and the test compounds were added to the 384-well cell test plate (Corning, 3765) at the predetermined concentration using ECHO. • 3. The cell culture flask was taken out, the medium was removed, and the cells were rinsed with PBS. Then 2 mL of trypsin (with 0.25% EDTA) was added, and the flask was placed in the incubator for digestion for 4 minutes. • 4. Digestion was stopped by adding 4 mL of complete medium and the cell suspension was transferred to a centrifuge tube and centrifuged at 1000 rpm for 4 minutes. • 5. The cells were resuspended in 6 mL of complete medium, followed by cell counting. The cell density was adjusted to 4,170 cells/mL, and the cells were added to a 384-well plate at 60 μL/well. • 6. The 384-well plate was centrifuged at 500 rpm for 1 minute, and then placed in a 37° C., 5% CO2 incubator for 6 days of cultivation. • 7. Six days later, the cell culture plate was equilibrated for 10 minutes at room temperature, 25 μL of Cell Titer-Glo was added to each well, and the mixture was shaken and mixed well and let stand for 5 minutes. The luminescence values for samples in various wells were read using a microplate reader in Luminescence mode.
as §1, with “(0.3%” for “(0.2%”

OVCAR-3 cells = experiment: OVCAR-3 cell proliferation (Cell Titer-Glo, 10 days); format: cell-based, human
Outline: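 IC50 was fitted by nonlinear regression of percent inhibition versus the 0.1% DMSO control. Luminescence was read with Cell Titer-Glo after 10 days of co-culture of logarithmic-phase cells (400/well) with compound at 0.12 nM–10 μM final, in medium with 20% fetal bovine serum and 0.01 mg/mL insulin.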

| SMILES | IC50 (HCT116 cells; Homo sapiens, HCT-116, 144 h) [nM] | IC50 (HT-29 cells; Homo sapiens, HT-29, 144 h) [nM] | IC50 (OVCAR-3 cells; Homo sapiens, OVCAR-3, 240 h) [nM] | IC50 (HCT116 cells) [nM] | IC50 (HT-29 cells) [nM] | IC50 (OVCAR-3 cells) [nM] |
| --- | --- | --- | --- | --- | --- | --- |
| N#Cc1ccc(NC(=O)c2ccc(NS(=O)(=O)CCO)cc2N2CCC3(CC2)CC3)c2cc3n(c12)CCOC3 [Example 310, N-(6-cyano-3,4-dihydro-1H-[1,4]oxazino[4,3-a]indol-9-yl)-4-((2-hydroxyethyl)sulfonamido)-2-(6-azaspiro[2.5]oct-6-yl)benzamide] | 9000 | ≤ 200 | ≤ 50 | – | – | – |
| CC1(C)OCCn2c1cc1c(NC(=O)c3ccc(NS(=O)(=O)CCO)cc3N3CCC(=C(F)F)CC3)cccc12 [Compound 395, 2-(4-(difluoromethylene)piperidin-1-yl)-N-(1,1-dimethyl-3,4-dihydro-1H-[1,4]oxazino[4,3-a]indol-9-yl)-4-((2-hydroxyethyl)sulfonamido)benzamide] | > 10000 | 200 to 1000 | 50 to 500 | – | – | – |
| N#Cc1ccc(NC(=O)c2ccc(NS(=O)(=O)CCO)cc2N2CCC(=C(F)F)CC2)c2cc3n(c12)CCC(F)(F)C3 [Example 378] | – | – | – | > 10000 | ≤ 200 | ≤ 50 |
| O=C(Nc1cccc2c1cc1n2CC2CCC1O2)c1ccc(NS(=O)(=O)CCO)cc1N1CCC(=C(F)F)CC1 (centres unmarked) [Compound 398, 2-(4-(difluoromethylene)piperidin-1-yl)-4-((2-hydroxyethyl)sulfonamido)-N-(7,8,9,10-tetrahydro-6H-7,10-epoxyazeto[1,2-a]indol-1-yl)benzamide] | – | – | – | > 10000 | – | ≤ 50 |
| O=C(Nc1cccc2c1cc1n2CCC(F)(F)C1)c1ccc(NS(=O)(=O)CCO)cc1N1CCC(=C(F)F)CC1 [Example 374, N-(8,8-difluoro-6,7,8,9-tetrahydropyridino[1,2-a]indol-1-yl)-2-(4-(difluoromethylene)piperidin-1-yl)-4-((2-hydroxyethyl)sulfonamido)benzamide] | 8700 | ≤ 200 | ≤ 50 | – | – | – |
| COc1ccc(NC(=O)c2ccc(NS(=O)(=O)CCO)cc2N2CCC(=C(F)F)CC2)c2cc3n(c12)CCOC3 [Compound 405, 2-(4-(difluoromethylene)piperidin-1-yl)-4-((2-hydroxyethyl)sulfonamido)-N-(6-methoxy-3,4-dihydro-1H-[1,4]oxazinyl[4,3-a]indol-9-yl)benzamide] | – | – | – | > 10000 | ≤ 200 | ≤ 50 |
| CC1(C)Cn2c(cc3c(NC(=O)c4ccc(NS(=O)(=O)CCO)cc4N4CCC(=C(F)F)CC4)ccc(C#N)c32)CO1 [Compound 393, N-(6-cyano-3,3-dimethyl-3,4-dihydro-1H-[1,4]oxazino[4,3-a]indol-9-yl)-2-(4-(difluoromethylene)piperidin-1-yl)-4-((2-hydroxyethyl)sulfonamido)benzamide] | > 10000 | ≤ 200 | 50 to 500 | – | – | – |
| O=C(Nc1cccc2c1cc1n2CCOC1)c1ccc(NS(=O)(=O)CCO)cc1N1CCC(=C(F)F)CC1 [Example 319, 2-(4-difluoromethylene)piperidin-1-yl-N-(3,4-dihydro-1H-[1,4]oxazino[4,3-a]indol-9-yl)-4-((2-hydroxyethyl)sulfonamide) benzamide] | – | – | – | > 10000 | 200 to 1000 | ≤ 50 |
| Nc1cc(NS(=O)(=O)CCO)cc(N2CCC3(CC2)CC3)c1C(=O)Nc1cccc(N2CCC(F)(F)CC2)c1 [Example 1, 2-amino-N-(3-(4,4-difluoropiperidin-1-yl)phenyl)-4-((2-hydroxyethyl)sulfonamide)-6-(6-azaspiro[2.5]octan-6-yl)benzamide] | – | – | – | – | ≤ 200 | ≤ 50 |
| CC1(C)Cn2c(nc3c(NC(=O)c4ccc(NS(=O)(=O)CCO)cc4N4CCC(=C(F)F)CC4)cccc32)CO1 [Compound 394, 2-(4-(difluoromethylene)piperidin-1-yl)-N-(3,3-dimethyl-3,4-dihydro-1H-benzo[4,5]imidazo[2,1-c][1,4]oxazin-9-yl)-4-((2-hydroxyethyl)sulfonamido)benzamide] | > 10000 | ≤ 200 | ≤ 50 | – | – | – |
| O=C(Nc1cccc2c1cc1n2CCOC1)c1ccc(NS(=O)(=O)CCO)cc1N1CCC2(CC1)CC2 [Example 235, N-(3,4-dihydro-1H-[1, 4]oxazino[4,3-a]indol-9-yl)-4-(2-hydroxyethylsulfonamido)-2-(6-azaspiro[2.5]octan-6-yl)benzamide] | > 10000 | ≤ 200 | ≤ 50 | – | – | – |
| COc1ccc(NC(=O)c2ccc(NS(=O)(=O)CCO)cc2N2CCC3(CC2)CC3)c2cc3n(c12)CC(C)(C)OC3 [Example 455, 4-((2-hydroxyethyl)sulfonamido)-N-(6-methoxy-3,3-dimethyl-3,4-dihydro-1H-[1,4]oxazinyl[4,3-a]indol-9-yl)-2-(6-azaspiro[2.5]oct-6-yl)benzamide] | > 10000 | ≤ 200 | ≤ 50 | – | – | – |
| O=C(Nc1ccc(F)c2c1cc1n2CCOC1)c1ccc(NS(=O)(=O)CCO)cc1N1CCC(=C(F)F)CC1 [Example 321, 2-(4-(difluoromethylene)piperidin-1-yl)-N-(6-fluoro-3,4-dihydro-1H-[1,4]oxazino[4,3-a]indol-9-yl)-4-((2-hydroxyethyl)sulfonamido)benzamide] | > 10000 | 200 to 1000 | 50 to 500 | – | – | – |
| CC1Cn2c(cc3c(NC(=O)c4ccc(NS(=O)(=O)CCO)cc4N4CCC5(CC4)CC5)cccc32)C(C)O1 (single isomer, unassigned) [Compound 312-P2A, N-(1,3-dimethyl-3,4-dihydro-1H-[1,4]oxazino[4,3-a]indol-9-yl)-4-((2-hydroxyethyl)sulfonamido)-2-(6-azaspiro[2.5]oct-6-yl)benzamide] | – | ≤ 200 | – | 6700 | – | ≤ 50 |
| COC1c2cc3c(NC(=O)c4ccc(NS(=O)(=O)CCO)cc4N4CCC5(CC4)CC5)cccc3n2CCC1(F)F (single isomer, unassigned) [Example 340-P2] | – | – | – | 8500 | ≤ 200 | ≤ 50 |
| COc1ccc(NC(=O)c2ccc(NS(=O)(=O)CCO)cc2N2CCC(=C(F)F)CC2)c2cc3n(c12)CC(C)(C)OC3 [Example 465, 2-(4-(difluoromethylene)piperidin-1-yl)-4-((2-hydroxyethyl)sulfonamido)-N-(6-methoxy-3,3-dimethyl-3,4-dihydro-1H-[1,4]oxazinyl[4,3-a]indol-9-yl)benzamide] | – | – | – | > 10000 | ≤ 200 | ≤ 50 |
| CC1(O)CCCn2c1cc1c(NC(=O)c3ccc(NS(=O)(=O)CCO)cc3N3CCC4(CC3)CC4)cccc12 (centres unmarked) [Example 372] | – | – | – | > 10000 | ≤ 200 | ≤ 50 |
| O=C(Nc1ccc(F)c2c1nc1n2CCOC1)c1ccc(NS(=O)(=O)CCO)cc1N1CCC2(CC1)CC2 [Example 308, N-(6-fluoro-3,4-dihydro-1H-benzo[4,5]imidazo[2,1-c][1,4]oxazin-9-yl)-4-((2-hydroxyethyl)sulfonamido)-2-(6-azaspiro[2.5]octan-6-yl)benzamide] | > 10000 | ≤ 200 | ≤ 50 | – | – | – |
| N#Cc1ccc(NC(=O)c2ccc(NS(=O)(=O)CCO)cc2N2CCC3(CC2)CC3)c2cc3n(c12)CCC(F)(F)C3 [Example 379] | – | – | – | 9800 | ≤ 200 | ≤ 50 |
| CC1(C)Cn2c(cc3c(NC(=O)c4ccc(NS(=O)(=O)CCO)cc4N4CCC5(CC4)CC5)ccc(OC(F)F)c32)CO1 [Example 523] | – | – | – | – | – | ≤ 50 |
